Holding throughout (type): cell-based
Test [1] relates to P. aeruginosa PA14. Nature of the test: Static culture biofilm thickness by confocal microscopy. The procedure: Static culture. Methods. Overnight P. aeruginosa cultures were back-diluted 1:1000 into tryptone broth with 100 μM mBTL, or an equivalent concentration of DMSO, and grown to mid-logarithmic phase (OD600=0.5). A 96-well plate with glass bottom (Thermo Fisher), which was filled with 200 μL of tryptone broth containing 100 μM mBTL or DMSO, was then inoculated with 2 μL of the mid-logarithmic culture. The 96-well plates were incubated for 24 h, prior to adding 5 μM SYTO 9 nucleic acid stain (Invitrogen). Biofilm thickness was measured using confocal microscopy (Nikon).

Test [2] has as its system P. aeruginosa PA14. Nature of the test: Microfluidic flow cell clogging (time until clogging). To be noted: wild-type P. aeruginosa PA14, 100 μM mBTL. Here is the method:
Microfluidic Flow Cells. Methods. Overnight P. aeruginosa PA14 cultures were back-diluted 1:1000 into 800 mL of tryptone broth (1% tryptone in H2O) with or without 100 μM mBTL and grown to mid-logarithmic phase (OD600=0.5). These cultures were used to fill 100 mL reservoirs that fed into microfluidic flow channels via Tygon tubing with an inner diameter of 2.4 mm. Similar tubing connected the outlet of the microfluidic channel to a collection dish on an analytical balance controlled via LabVIEW. The elevation of the culture reservoir above the collection dish on the balance set the constant pressure difference that drove the flow through the microfluidic channel. The microfluidic channel is 200 μm wide, 90 μm high, and contains a sequence of 37 bends that mimic corners in porous materials. The weight of the effluent culture was measured as a function of time t with measurement intervals of 4 s, and the data were converted into a flow rate Q(t) via the equation
[formula] where Δt=30 s and the density is assumed to be that of water, 1 kg/L. To the resulting flow rate time series Q(t), the function
[formula] was fitted which yields the measurement of the time until clogging (corresponding to the time at which the flow rate declined to 50% of its baseline value Q0).

Test [3] deals with P. aeruginosa PA14. Nature of the test: Growth of P. aeruginosa monitored by absorbance at 600 nm.

This note sets out measurements from patent US9751851B2, “Molecules and compositions that inhibit gram negative bacteria and their uses” (THE TRUSTEES OF PRINCETON UNIVERSITY, priority 2013, dated 2017).

With meta-bromothiolactone [mBTL], the average biofilm height in the test on P. aeruginosa PA14 [1] (lasR null strain, 100 μM mBTL (untreated 15.7+/−4.9)) was 6.6+/−2.3 μm; in the test with P. aeruginosa PA14 [1] (lasR, rhlR double null strain, 100 μM mBTL (untreated 11.9+/−5.5)), 16.2+/−5.9 μm; in the test with P. aeruginosa PA14 [1] (rhlR null strain, 100 μM mBTL (untreated 25+/−10.6)), 22.1+/−7.5 μm; in the test with P. aeruginosa PA14 [1] (wild-type, 100 μM mBTL, 24 h (untreated 27.5+/−11.5)), 10+/−4 μm. The “clogging of microfluidic chambers” value in the test with P. aeruginosa PA14 [2] is given as “phenotype indistinguishable from the mutants”. Further, the “effect on P. aeruginosa PA14 growth” value with P. aeruginosa PA14 [3] is on record as “not affecting P. aeruginosa PA14 growth”.
